# Experimental data as given in patent US20200339544A1 (JOINT STOCK COMPANY "BIOCAD", priority 2017, published 2020).
# Counter-ions that a name gives are not always drawn.
# Assays:
# WT EGFR (Wild-Type EGFR) = molecular target: T1, WT EGFR (Wild-Type EGFR) (Homo sapiens, UniProt P00533); experiment: Inhibition of WT EGFR kinase activity (ADP-Glo); type: biochemical
# T1 construct: purchased SignalChem
# How it was run: (§1)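 Recombinant WT or double-mutant EGFR was incubated with a solution of 0.5 mg/mL peptide substrate and 50 μM ATP for 180 minutes at 37° C. Kinase activity was detected by ADP-Glo luminescence. IC50 values came from a four-parameter logistic fit.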
# [1] = General cytotoxicity on HepG2 cells; type: cell-based; conditions: human; general cytotoxicity, HepG2 cells, 72 hours, average of several tests
# How it was run: (§2)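 HepG2 cells seeded at 2*10^4 cells per well and compounds added in DMEM with 2% FBS for 72 h at 37 °C. Viability read with Alamar Blue and CC50 derived as for IC50. Therapeutic index taken as HepG2 CC50 over H1975 IC50.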
# HepG2 cells = experiment: General cytotoxicity on HepG2 cells; type: cell-based; conditions: therapeutic index, CC50 HepG2 / IC50 H1975
# How it was run: as §2
# [2] = molecular target: T2, DM EGFR (DoubleMutantEGFR, L828R/T790M) (Homo sapiens, UniProt P00533, L858R/T790M); experiment: Inhibition of DM EGFR kinase activity (ADP-Glo); type: biochemical; conditions: for IC50: inhibition of kinase activity, EGFR DM (L828R/T790M); for SI, IC50(WT)/IC50(DM): selectivity index, kinase EGFR WT vs EGFR DM
# T2 construct: purchased SignalChem
# How it was run: as §1
# [3] = Permeability through monolayer of Caco-2 cells; type: in vitro ADME; conditions: human, Caco-2 monolayer; for Papp A→B at 2 h, 10 µM: pH 6.5 upper / pH 7.4 lower, 2 h at 37° C.; for efflux ratio at 2 h, 10 µM: Papp B-A/Papp A-B
# From the text: 2) Assessment of permeability through monolayer of Caco-2 cells.
# Assessment of permeability through the monolayer of Caco-2 cells allows to evaluate the ability of the candidate compounds to penetrate through biological membranes by active and passive transport.
# Caco-2, the cells of the intestinal epithelium, had been cultured in transwell plate inserts with the filters (with pores of 0.4 μm, BD Falcon with High Density) for 21 days, and then the integrity of the monolayer were estimated with Lucifer Yellow (Sigma-Aldrich, USA) by standard protocol. When setting the A→B transfer (“intestinal lumen”—“blood stream” transfer), solutions of test substances were added in a buffer with pH 6.5 (HBSS, 10 mM HEPES, 15 mM glucose solution) with the concentration of 10 μM into the upper chamber; the lower chamber was filled with a buffer with pH 7.4 (HBSS, 10 mM HEPES, 15 mM Glucose, 1% BSA). When setting B→A transfer (“blood stream”—“intestinal lumen” transfer), the upper chamber was filled with the buffer with pH 6.5, and solutions of the test substances were added in the buffer with pH 7.4 at the concentration of 10 μM in the lower chamber. Propranolol was used as a control substance (as it has high permeability).
# After incubating for 2 h at 37° C. under 5% CO2, the amounts of test substances were determined in the upper and lower chambers by HPLC using Agilent1200 chromatograph (Agilent, USA) with preliminary protein precipitation with acetonitrile. We used gradient elution (1 mL/min flow rate). We determined the areas of peaks corresponding to the compounds. On the basis of peak areas in the calibration standards we determined the concentration of compound in the initial solution and in the samples from the wells of the upper and lower chambers. Papp, permeability through the cell layer, was calculated using the following formula:
# Papp=(C(t)*V)/(C(0)*t*Area), wherein
# The value was calculated with the following formula:
# efflux=Papp B-A/Papp A-B, wherein • Papp A-B—the volume of permeability in A→B test; • Papp B-A—he volume of permeability in B→A test.
IC50 (WT EGFR (Wild-Type EGFR)),IC50 [2],"SI, IC50(WT)/IC50(DM) [2]","Papp A→B at 2 h, 10 µM [3]","efflux ratio at 2 h, 10 µM [3]",Structure (SMILES),CC50 at 72 h [1],"TI, CC50/IC50 (HepG2 cells)"
183 nM,7.31 nM,25.06,–,–,"C=CC(=O)Nc1cc(Nc2cc(C(=O)c3ccc(N4CC(OC)C4)cc3)ccn2)c(OC)cc1N(C)CCN(C)C (racemic) [EGFR_3365_53, N-(2-((2-(dimethylamino)ethyl)(methyl)amino)-4-methoxy-5-((4-(4-(3-methoxyazetidin-1-yl)benzoyl)pyridin-2-yl)amino)phenyl)acrylamide]",20600 nM,457
587 nM,22 nM,26.69,5.28 ×10⁻⁶ cm/s,1.29,"C=CC(=O)Nc1cc(Nc2nccc(C(=O)c3ccccc3C(F)(F)F)n2)c(OC)cc1N(C)CCN(C)C [EGFR_3365, N-(2-((2-(dimethylamino)ethyl) (methyl)amino)-4-methoxy-5-((4-(2-(trifluoromethyl)benzoyl)pyrimidin-2-yl)amino)phenyl)acrylamide]",25400 nM,423
76.6 nM,14.5 nM,5.29,5.9 ×10⁻⁶ cm/s,0.8,"C=CC(=O)Nc1cc(Nc2cc(C(=O)c3ccccc3)ccn2)c(OC)cc1N(C)CCN(C)C [EGFR_3365_3, N-(5-((4-benzoylpyridin-2-yl)amino)-2-((2-(dimethylamino)ethyl)(methyl)amino)-4-methoxyphenyl)acrylamide]",15200 nM,341
230 nM,21.4 nM,10.79,2.86 ×10⁻⁶ cm/s,2,"C=CC(=O)Nc1cc(Nc2cc(C(=O)c3ccc(N(C)C)cc3)ccn2)c(OC)cc1N(C)CCN(C)C.O=C(O)C(F)(F)F [EGFR_3365_4, N-(5-((4-(4-(dimethylamino)benzoyl)pyridin-2-yl)amino)-2-((2-(dimethylamino)ethyl) (methyl)amino)-4-methoxyphenyl)acrylamide 2,2,2-trifluoroacetate]",14800 nM,419
211 nM,7.28 nM,29.06,2.88 ×10⁻⁶ cm/s,0.58,"C=CC(=O)Nc1cc(Nc2nccc(C(=O)c3ccc(F)cc3)n2)c(OC)cc1N(C)CCN(C)C [EGFR_3365_10, N-(2-((2-(dimethylamino)ethyl)(methyl)amino)-5-((4-(4-fluorobenzoyl)pyrimidin-2-yl)amino)-4-methoxyphenyl) acrylamide]",30400 nM,144
389 nM,25.5 nM,15.25,1.94 ×10⁻⁶ cm/s,0.98,"C=CC(=O)Nc1cc(Nc2nccc(C(=O)c3ccccc3Br)n2)c(OC)cc1N(C)CCN(C)C [EGFR_3365_12, N-(5-((4-(2-bromobenzoyl)pyrimidin-2-yl)amino)-2-((2-(dimethylamino)ethyl) (methyl)amino)-4-methoxyphenyl)acrylamide]",22600 nM,1051
154 nM,32.8 nM,4.70,–,–,"C=CC(=O)Nc1cc(Nc2nccc(C(=O)c3ccc(OCc4ccccc4)cc3)n2)c(OC)cc1N(C)CCN(C)C [EGFR_3365_16, N-(5-((4-(4-(benzyloxy)benzoyl)pyrimidin-2-yl)amino)-2-((2-(dimethylamino)ethyl)(methyl)amino)-4-methoxyphenyl)acrylamide]",5790 nM,108
171 nM,21.5 nM,7.95,–,–,"C=CC(=O)Nc1cc(Nc2nccc(C(=O)c3ccc(Oc4ccccc4)cc3)n2)c(OC)cc1N(C)CCN(C)C [EGFR_3365_17, N-(2-((2-(dimethylamino)ethyl)(methyl)amino)-4-methoxy-5-((4-(4-phenoxybenzoyl)pyrimidin-2-yl)amino)phenyl)acrylamide]",6320 nM,16
128 nM,6.27 nM,20.33,3.84 ×10⁻⁶ cm/s,1.87,"C=CC(=O)Nc1cc(Nc2nccc(C(=O)c3ccc(OC)cc3)n2)c(OC)cc1N(C)CCN(C)C [EGFR_3365_28, N-(2-((2-(dimethylamino)ethyl)(methyl)amino)-4-methoxy-5-((4-(4-methoxybenzoyl)pyrimidin-2-yl)amino)phenyl)acrylamide]",31400 nM,1836
202 nM,10.7 nM,18.79,4.26 ×10⁻⁶ cm/s,1.5,"C=CC(=O)Nc1cc(Nc2nccc(C(=O)c3ccc(OCC)cc3)n2)c(OC)cc1N(C)CCN(C)C [EGFR_3365_29, N-(2-((2-(dimethylamino)ethyl)(methyl)amino)-5-((4-(4-ethoxybenzoyl)pyrimidin-2-yl)amino)-4-methoxyphenyl) acrylamide]",30600 nM,1135
613 nM,7.69 nM,79.77,4.36 ×10⁻⁶ cm/s,0.5,"C=CC(=O)Nc1cc(Nc2nccc(C(=O)c3ccc(OCCC)cc3)n2)c(OC)cc1N(C)CCN(C)C [EGFR_3365_30, N-(2-((2-(dimethylamino)ethyl)(methyl)amino)-4-methoxy-5-((4-(4-propoxybenzoyl)pyrimidin-2-yl)amino)phenyl)acrylamide]",10900 nM,666
76.6 nM,25.4 nM,3.02,–,–,"C=CC(=O)Nc1cc(Nc2cc(C(=O)c3ccc(N4CCN(C)CC4)cc3)ccn2)c(OC)cc1N(C)CCN(C)C [EGFR_3365_55, N-(2-((2-(dimethylamino)ethyl)(methyl)amino)-4-methoxy-5-((4-(4-(4-methylpiperazin-1-yl)benzoyl)pyridin-2-yl)amino)phenyl)acrylamide]",13300 nM,63
93.9 nM,9.03 nM,10.40,–,–,"C=CC(=O)Nc1cc(Nc2nccc(C(=O)c3ccc(OCC)cc3OCC)n2)c(OC)cc1N(C)CCN(C)C [EGFR_3365_68, N-(5-((4-(2,4-diethoxybenzoyl)pyrimidin-2-yl)amino)-2-((2-(dimethylamino)ethyl) (methyl)amino)-4-methoxyphenyl)acrylamide]",28600 nM,825
23.6 nM,2.59 nM,9.12,–,–,"C=CC(=O)Nc1cc(Nc2nccc(C(=O)c3ccc(OC)cc3OC)n2)c(OC)cc1N(C)CCN(C)C [EGFR_3365_69, N-(5-((4-(2,4-dimethoxybenzoyl)pyrimidin-2-yl)amino)-2-((2-(dimethylamino)ethyl)(methyl)amino)-4-methoxyphenyl)acrylamide]",51900 nM,6549
60 nM,8.36 nM,7.17,–,–,"C=CC(=O)Nc1cc(Nc2cc(C(=O)c3ccc(-c4cnn(C)c4)cc3)ccn2)c(OC)cc1N(C)CCN(C)C [EGFR_3365_85, N-(2-((2-(dimethylamino)ethyl)(methyl)amino)-4-methoxy-5-((4-(4-(1-methyl-1H-pyrazol-4-yl)benzoyl)pyridin-2-yl)amino)phenyl) acrylamide]",21200 nM,153

Structure (SMILES),IC50 (WT EGFR (Wild-Type EGFR)),IC50 [2],"SI, IC50(WT)/IC50(DM) [2]","Papp A→B at 2 h, 10 µM [3]","efflux ratio at 2 h, 10 µM [3]",CC50 at 72 h [1],"TI, CC50/IC50 (HepG2 cells)"
"C=CC(=O)Nc1cc(Nc2nccc(C(=O)c3ccc(N4CCN(C)CC4)cc3)n2)c(OC)cc1N(C)CCN(C)C [EGFR_3365_62, N-(2-((2-(dimethylamino)ethyl)(methyl)amino)-4-methoxy-5-((4-(4-(4-methylpiperazin-1-yl)benzoyl)pyrimidin-2-yl)amino)phenyl)acrylamide formate]",127 nM,6.58 nM,19.37,–,–,31100 nM,512
